Results taken from PubChem BioAssay (NCI).
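Assay format: 96-well plates, 48-hour exposure. TGI marks complete inhibition of growth.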

Tests used:
Assay in all cases: growth of human tumour cells (NCI), 48 h
HOP-92 NSCLC = tested on: HOP-92 NSCLC
NCI-H522 lung = tested on: NCI-H522 lung
SW-620 colon = tested on: SW-620 colon
MDA-MB-435 = tested on: MDA-MB-435
SK-MEL-5 melanoma = tested on: SK-MEL-5 melanoma
SF-268 CNS = tested on: SF-268 CNS
NCI-H226 lung = tested on: NCI-H226 lung
786-0 renal = tested on: 786-0 renal
NCI/ADR-RES ovarian = tested on: NCI/ADR-RES ovarian
HT29 colon = tested on: HT29 colon
UO-31 renal = tested on: UO-31 renal
UACC-257 melanoma = tested on: UACC-257 melanoma

Structure (SMILES)	TGI (HOP-92 NSCLC)	TGI (NCI-H522 lung)	TGI (SW-620 colon)	TGI (MDA-MB-435)	TGI (SK-MEL-5 melanoma)	TGI (SF-268 CNS)	TGI (NCI-H226 lung)	TGI (786-0 renal)	TGI (NCI/ADR-RES ovarian)	TGI (HT29 colon)	TGI (UO-31 renal)	TGI (UACC-257 melanoma)
Cc1ccc2c(c1C)C(=O)C1(Cc3cc4c(cc3C1=O)CCC4)C2 (stereo unspecified)	> 100 µM	> 100 µM	> 100 µM	> 100 µM	> 100 µM	> 100 µM	> 100 µM	> 100 µM	> 100 µM	> 100 µM	> 100 µM	> 100 µM
NS(=O)(=O)c1nnc(NC(=O)N(c2ccccc2)c2ccccc2)s1	53 µM	40.9 µM	> 100 µM	68.8 µM	67 µM	> 100 µM	> 100 µM	> 100 µM	44.4 µM	> 100 µM	> 100 µM	> 100 µM
O=C(CC(NC(=O)C(F)(F)F)C(=O)O)OCc1ccccc1 (stereo unspecified)	> 100 µM	> 100 µM	> 100 µM	> 100 µM	> 100 µM	> 100 µM	> 100 µM	> 100 µM	> 100 µM	> 100 µM	> 100 µM	> 100 µM
C[n+]1cc2cc(O)c(O)cc2c2ccc3cc(O)c(O)cc3c21	11.5 µM	3.43 µM	> 100 µM	> 100 µM	> 54.8 µM	13.5 µM	> 48.2 µM	9.21 µM	6.67 µM	66.9 µM	5.61 µM	> 100 µM
COC(=O)c1ccccc1C1CN=NC12Cc1c(ccc(C)c1C)C2=O (stereo unspecified)	84.2 µM	> 100 µM	> 100 µM	> 100 µM	> 100 µM	> 100 µM	> 100 µM	> 100 µM	> 100 µM	> 100 µM	> 100 µM	> 100 µM
Cc1c2cccc-2c2cc(O)c3ccccc3c2n1-c1ccc(N(C)C)cc1	8 µM	33 µM	53.6 µM	27.8 µM	24.1 µM	32.8 µM	24.4 µM	33.1 µM	30.7 µM	31.4 µM	24.8 µM	> 100 µM
O=C(ON=C1c2ccccc2C(Br)C(Br)c2ccccc21)c1ccccc1 (stereo unspecified)	5.27 µM	3.85 µM	28.6 µM	34.9 µM	31.7 µM	42.3 µM	34.1 µM	23 µM	51.4 µM	38 µM	8.32 µM	41.7 µM
O=CC(I)=C(c1ccccc1)c1ccccc1	38.1 µM	32.3 µM	19.9 µM	31.4 µM	31.9 µM	> 56.8 µM	57 µM	28.9 µM	45.1 µM	29.4 µM	29.1 µM	42.3 µM
CCOC1C=CC(=O)C(CO)O1 (stereo unspecified)	8.29 µM	3.52 µM	29.6 µM	25.6 µM	37.1 µM	32.5 µM	46.3 µM	14.2 µM	33.2 µM	25.4 µM	4.77 µM	19.9 µM
Clc1cccc(-c2sc(-c3cccs3)cc2Cc2cccs2)c1	> 10 µM	> 10 µM	> 10 µM	> 10 µM	> 10 µM	> 10 µM	> 10 µM	> 10 µM	> 10 µM	> 10 µM	> 10 µM	> 10 µM
Cn1c2ccccc2n2c3ncccc3c(=O)c(C#N)c12	> 100 µM	35.4 µM	> 100 µM	> 100 µM	21.5 µM	> 100 µM	4.65 µM	> 81 µM	> 100 µM	> 100 µM	43.1 µM	> 100 µM
CN(O)C(=O)/C=C/c1ccc(OCc2cccc(Cl)c2)cc1	> 100 µM	> 100 µM	> 100 µM	> 100 µM	78.2 µM	> 100 µM	73.9 µM	47.2 µM	46.7 µM	34.9 µM	23.5 µM	> 100 µM
Cc1ccc2cccc(-c3cccc4ccccc34)c2n1	62.1 µM	66.5 µM	> 100 µM	7.58 µM	32.2 µM	> 100 µM	74.5 µM	> 100 µM	> 100 µM	76.9 µM	51.4 µM	> 100 µM
COC(=O)/C=C(/C=C1/C(C#N)=C(N)N(c2ccc(Cl)cc2)C1(C)/C(=C\C(=O)OC)C(=O)OC)C(=O)OC (stereo unspecified)	48 µM	16.4 µM	30.8 µM	41 µM	29.4 µM	47.8 µM	86.4 µM	32.7 µM	36.9 µM	39 µM	41.2 µM	35.8 µM
CC(=O)O[C@@H](c1nccn1Cc1ccccc1)[C@H]1OC(C)(C)O[C@@H]1[C@H]1COC(C)(C)O1	> 100 µM	> 100 µM	> 100 µM	> 100 µM	> 100 µM	> 100 µM	> 100 µM	> 100 µM	> 100 µM	> 100 µM	> 100 µM	> 100 µM
NC1=CC(=O)c2c(O)ccc(O)c2C1=O	38.2 µM	18 µM	15.2 µM	31.6 µM	20.3 µM	> 70.1 µM	> 100 µM	21.8 µM	68.2 µM	19.8 µM	15.7 µM	30.2 µM
CC(=O)Nc1nc(Cl)cc(NCC2(CO)CCC2)n1	> 100 µM	> 100 µM	> 100 µM	> 100 µM	> 100 µM	> 100 µM	> 100 µM	> 100 µM	> 100 µM	> 100 µM	> 100 µM	> 100 µM
C[C@@H]1CC[C@@]2(C)C(C(=O)O)=CCCC2[C@@]1(C)CC(=O)c1ccoc1 (stereo partly specified)	> 25 µM	> 25 µM	> 25 µM	> 25 µM	> 25 µM	> 25 µM	> 25 µM	> 25 µM	> 25 µM	> 25 µM	> 25 µM	> 25 µM
